In one test the test system is A375 melanoma cells. The test can be described thus: subG1 cell cycle FACS apoptosis assay, A375 melanoma cells. The settings on record: A375, Protocol A. The class given is cell-based, human. The procedure: (§1) To transfer adherent cells (A375 and BxPC-3 cells) after culture, cells are washed twice with PBS. To detach the cells, the enzyme biotase is used according to the manufacturer's instructions. For this purpose, after washing with PBS, the cells are mixed with biotase (5 ml of biotase solution per 75 cm^2 surface of the cell culture bottles) and incubated for 5 min at 37 degrees Celsius, and the biotase is separated by centrifugation. Cells cultivated in suspension (MEC-1 and lymphocytes) were transferred by dilution. The cells are suspended in culture medium and counted, each time 1.5×10^5 cells/cm^2 are seeded in 48-well plates and cultured for between 1.5 and 24 hours at 37 degrees Celsius, 5% CO2. Peptides are pre-diluted from stock solution with culture medium and 200 μl of peptide solution added so that final concentrations of 30 to 500 μM peptide are present in at most 1% (v/v) DMSO. As control solutions, culture medium without peptide (DMSO-containing) in culture medium or etoposide solution is added. After incubating the cells for several hours, the cell supernatant is transferred to a FACS tube for each batch and, after washing the cells with PBS, the wash solution is added. Then the cells are incubated with 200 μl of biotase solution for 10 min, 37° C., the cells with the biotase are also transferred to the FACS tube and the cells are collected by centrifugation for 5 min. The cell pellet is suspended in 500 μl of serum-free culture medium, then 1.5 ml of cold 80% ethanol (ethanol/PBS-80/20, v/v, stored at −20° C.) is added, the FACS tubes sealed and stored at −20 degrees Celsius for 15 to 18 h. Thereafter, the cells are centrifuged for 5 minutes at 120 g, suspended after removal of the supernatant in 2 ml PBS and incubated at 37 degrees Celsius for 30 minutes. After re-centrifugation, the cells are suspended in 0.5 ml DAPI solution and incubated for 15 min at 20 degrees Celsius in the dark. Thereafter, the cells are stored dark for a maximum of four hours in an ice bath, followed by the FACS analysis.
(§2) The adherent cells (A375 and BxPC-3 cells and MDA-MB-231, respectively) are seeded 24 hours before induction in 6-well plates in culture medium. For this, the cells are washed with PBS, then incubated with trypsin/EDTA solution at 37 degrees Celsius and suspended in culture medium. The 6-well plates are loaded with 1×10^5 cells/cm^2 in culture medium and the cells incubated for 24 hours until induction with the peptides in the incubator. For induction, the peptides are diluted in fresh culture medium. As control solutions, culture medium without peptide (DMSO-containing) in culture medium or etoposide solution is added. The cells are washed with PBS. Thereafter the peptide solution in culture medium is added to the cells. After incubation in the incubator (37° C., 5% CO2) between 1.5 and 24 hours, the cell supernatant is transferred to 15 ml centrifuge tubes, the cells are washed with 0.75 ml PBS and then with 0.5 ml versene solution. Both washings are combined with the cell supernatant. The cells are then added with 0.5 ml of trypsin/EDTA solution and incubated at about 37° C. for at most 10 minutes until the cells detached. The cell suspension is combined with cell supernatant and washings and centrifuged at about 130 g for about 10 minutes. After removing the supernatant, the cells are suspended in 400 μl of cell culture medium (without serum) and mixed with 1.2 ml of 80% ethanol/20% PBS (v/v) and incubated for 1 to 7 days at −20° C. For analysis, the cells are centrifuged at 130 g for 10 min, suspended in 2 ml PBS, and centrifuged again for 5 min. The cells are suspended in 700 μl PI buffer and incubated for 10 min at 37° C. in the dark. Subsequently, the cells are stored dark for a maximum of four hours in an ice bath, then the FACS analysis is performed.
The proportion of cells which have died was determined by two methods, both rely on the analysis of cells by flow cytometry, often called FACS analysis. […]

For test [1], the system named is BxPC-3 human pancreatic cancer cells. The test can be described thus: subG1 cell cycle FACS apoptosis assay, BxPC-3 cells. The test is classed as cell-based. As to conditions: BxPC-3, Protocol A, about 24 hours, FIG. 10. The procedure:
as §1
as §2, with “performed. […]” for “performed.”

The source of these data is patent US20220160812A1, “A PHARMACEUTICALLY ACTIVE SUBSTANCE” (Cytopharma GmbH, priority 2019, published 2022).

As for “k-s-q-t-v-k-k-w-m-v-v-y-f-r-k [SEQID No 29]”, the “apoptosis efficiency (subG1), comparison in words” value (“apoptosis efficiency … in words” for short) in the test with A375 melanoma cells (200 μM, about 24 hours, FIG. 4) was “higher efficiency at 200 μM in view of Peptide SEQID No 37”; in test [1] (50 μM) it was “slight improvement over peptides SEQID NO 27 and SEQID NO 37”; in test [1] (100 μM) it was “higher efficiency at 100 μM in view of Peptides SEQID NO 27, SEQID NO 37 and SEQID NO 36”.
For the substance “s-q-t-v-q-k-w-m-v-v-y-f-r-k [SEQID No 37]”, in the test with A375 melanoma cells (100 μM, FIG. 6), the “apoptosis level (subG1), comparison in words” value is “slightly improved apoptosis level in view of peptide SEQID NO 27”. The “apoptosis efficiency … in words” value is “best results” in the test on A375 melanoma cells (200 μM, incubation 24 h, FIG. 6); “clear improvement over peptides SEQID NO 27 and SEQID NO 29” in test [1] (200 μM).
For the substance “k-s-q-t-v-q-k-w-m-v-v-y-f-r-k [SEQID No 36]”, the “apoptosis level (subG1), comparison in words” value in the test on A375 melanoma cells (100 μM, FIG. 6) was “slightly improved apoptosis level in view of peptide SEQID NO 27”. For the same substance, the “apoptosis efficiency (subG1) in view of Peptide SEQ C1” value is given as “at least fivefold” in the test on A375 melanoma cells (100 μM, about 24 hours, FIG. 4); “at least tenfold” with A375 melanoma cells (200 μM, about 24 hours, FIG. 4); “at least fourfold” in test [1] (any concentration (50, 100, 200 μM)). Further, the “apoptosis level (subG1)” value in the test on A375 melanoma cells (200 μM and above, incubation about 3 hours, FIG. 6) is recorded as “high apoptosis level”. Moreover, the “apoptosis efficiency … in words” value was “improvement over Peptides SEQID NO 37 and SEQID NO 27” with A375 melanoma cells (200 μM, incubation 1.5 h, 3 h and 6 h, FIG. 6); “improvement with regard to all incubation times over Peptides SEQID NO 37 and SEQID NO 27” with A375 melanoma cells (300 μM, all incubation times (1.5, 3, 6, 24 h), FIG. 6); “clear improvement over Peptides SEQID NO 37 and SEQID NO 29 at any concentration” in the test with A375 melanoma cells (any concentration (50, 100, 200 μM), about 24 hours, FIG. 4); “slight improvement over peptides SEQID NO 27 and SEQID NO 37” in test [1] (50 μM); “clear improvement over peptides SEQID NO 27 and SEQID NO 29” in test [1] (200 μM).
